# Measurements from paper PMC3822589 (Journal of Cellular and Molecular Medicine, 2013).
# “Also recorded” adds a separate entry of the source. Like-named read-outs stand apart in the source and are kept apart here.
# Assays:
# [1] = tested on: CD34+ cells of Jak2V617F-positive MPN patients; test: Colony forming cell; format: cell-based, human; details: single inhibitor; 12–16 days of culture
# [2] = tested on: Phospho-STAT5 (P-STAT5) levels in HEL cells (Jak2V617F); test: Western blot of phospho-STAT5 in HEL cells; format: cell-based, human; details: for effect on phosphorylation of STAT5 (Western blot): 0.5, 1 or 5 μM, 3 hrs; for IC50 / IC50 values, WB (P-STAT5): mean ± SD
# [3] = tested on: Jak2V617F in HEK-V617F-STAT-Rep. cells; test: pSTAT-ZsGreen reporter gene assay; format: cell-based; details: for IC50: read-out: IC50 values, STAT-reporter gene assay
# [4] = tested on: Jak2V617F in γ2A-FRT-TI-Jak2V617F/STAT3-YFP cells; test: STAT3-YFP translocation assay; format: cell-based; details: for IC50: read-out: IC50 values, STAT3-YFP translocation assay
# HEL cells [5] = test: Cell proliferation assay; format: cell-based, human; details: for effect on proliferation of HEL cells: 0.3 or 1 μM; for IC50: read-out: IC50 values, Proliferation assay
# [6] = tested on: 2C4, HCT-116 and K-562 cells; test: Nuclei size in cell lines not expressing Jak2V617F; format: cell-based; details: 500 nM; 48 hrs
# [7] = tested on: P-STAT5 in UKE-1 cells (Jak2V617F); test: Western blot of phospho-STAT5 in UKE-1 cells; format: cell-based; details: 2.5 μM, 3 hrs
# [8] = tested on: P-STAT5 in BA/F3-EpoR-Jak2V617F cells; test: Western blot of phospho-STAT5 in BA/F3-EpoR-Jak2V617F cells; format: cell-based, murine; details: 2.5 μM, 3 hrs
# [9] = tested on: Jak2V617F phosphorylation (P-Jak2) in HEL cells; test: Western blot of phospho-Jak2 in HEL cells; format: cell-based, human; details: 0.5, 1 or 5 μM, 3 hrs
# HEL cells [10] = test: Cell cycle analysis; format: cell-based, human; details: 500 nM CEP701, VX680, TG101209 or 100 nM AT9283
# [11] = tested on: phosphorylation of histone H3 (target of Aurora kinase B) in HEL cells; test: Quantitative Western blot of phospho-histone H3 in HEL cells; format: cell-based, human; details: HEL cells blocked with Nocodazole; 0.25, 0.5 or 1 μM; 3 hrs
# [12] = tested on: phosphorylation of histone H3 in UKE-1 cells; test: Quantitative Western blot of phospho-histone H3 in UKE-1 cells; format: cell-based; details: UKE-1 cells blocked with Nocodazole; 0.25, 0.5 or 1 μM; 3 hrs
# [13] = tested on: phosphorylation of histone H3 in BA/F3-EpoR-Jak2V617F cells; test: Quantitative Western blot of phospho-histone H3 in BA/F3-EpoR-Jak2V617F cells; format: cell-based, murine; details: BA/F3-EpoR-Jak2V617F cells blocked with Nocodazole; 0.25, 0.5 or 1 μM; 3 hrs
# HEL cells [14] = test: Cell size determination; format: cell-based, human; details: 600 nM CEP701, TG101209, VX680 or 100 nM AT9283; 24, 48 or 72 hrs
# [15] = tested on: γ2A-FRT-TI-Jak2V617F/STAT3-YFP cells; test: Nuclei size by confocal imaging and Cell Profiler; format: cell-based; details: 24 hrs; Cell Profiler
# [16] = Homo sapiens, HEL, read-out: IC50 values, WB (P-STAT5), HEL cells
# [17] = read-out: IC50 values, WB (P-STAT5), HEL cells
# [18] = HEK-V617F-STAT-Rep. cells, 24 hrs, mean ± SD
# [19] = γ2A-FRT-TI-Jak2V617F/STAT3-YFP cells, mean ± SD
Compound,"IC50 values, WB (P-STAT5) ([2]; HEL cells)",effect on erythroid and myeloid colony growth [1],effect on phosphorylation of STAT5 (Western blot) ([2]; HEL cells),effect on proliferation of HEL cells (HEL cells [5]; 72 hrs),effect on phosphorylation of STAT5 (Western blot) [7],effect on phosphorylation of STAT5 (Western blot) [8],effect on phosphorylation of Jak2 [9],further results
CO[C@@H](C(=O)N1Cc2n[nH]c(NC(=O)c3ccc(N4CCN(C)CC4)cc3)c2C1)c1ccccc1 [Danusertib],,same behaviour,,,,,,
C[C@]12O[C@H](C[C@]1(O)CO)n1c3ccccc3c3c4c(c5c6ccccc6n2c5c31)CNC4=O [CEP701],,erythroid and myeloid colonies were equally well suppressed,strongly reduced phosphorylation of STAT5,reduced proliferation of HEL cells very effectively,efficiently decreased,efficiently decreased,increased phosphorylation of Jak2,"IC50 [2, 16]: ~100 nM; IC50 [2, 17]: 97 ± 39 nM; IC50 ([3]; 24 h): 111 ± 22 nM; IC50 [4]: 45 ± 15 nM; IC50 (HEL cells [5]; Homo sapiens, HEL, 72 h): 81 ± 20 nM; increase in nuclei size in cell lines not expressing Jak2V617F [6]: this effect was also clearly visible; effect on cell cycle profile (HEL cells [10]): emergence of an 8n peak; effect on histone H3 phosphorylation [11]: Reduction in histone H3 phosphorylation; effect on histone H3 phosphorylation [12]: decline of histone H3 phosphorylation; effect on histone H3 phosphorylation [13]: decline of histone H3 phosphorylation; effect on HEL cell size (HEL cells [14]): increased in size"
C/C(O)=C(\C#N)C(=O)Nc1cc(Br)ccc1Br [LFM-A13],No inhibition,,did not inhibit the phosphorylation of STAT5,neither affected cell growth,,,not observed,
O=C(Nc1c[nH]nc1-c1nc2ccc(CN3CCOCC3)cc2[nH]1)NC1CC1 [AT9283],,,strongly reduced phosphorylation of STAT5,,efficiently decreased,efficiently decreased,increased phosphorylation of Jak2,IC50 [4]: 74 ± 38 nM; effect on cell cycle profile (HEL cells [10]): emergence of an 8n peak; effect on histone H3 phosphorylation [11]: Reduction in histone H3 phosphorylation; effect on HEL cell size (HEL cells [14]): increased in size
CCN(CCCOc1ccc2c(Nc3cc(CC(=O)Nc4cccc(F)c4)n[nH]3)ncnc2c1)CCOP(=O)(O)O [AZD1152],,same behaviour,,,,,,
N#C/C(=C/c1ccc(O)c(O)c1)C(=O)NCc1ccccc1 [AG490],No inhibition,,did not inhibit the phosphorylation of STAT5,neither affected cell growth,did not inhibit STAT5 phosphorylation,did not inhibit STAT5 phosphorylation,not observed,
O=C(Nc1cccc(Cl)c1)Nc1ncc(CCNc2ncnc3ccsc23)s1 [SNS314],,same behaviour,,,,,,
CC(C)(C)c1nc2c3cc[nH]c(=O)c3c3cc(F)ccc3c2[nH]1 [JI1],,,strongly reduced phosphorylation of STAT5,reduced proliferation of HEL cells very effectively,efficiently decreased,efficiently decreased,increased phosphorylation of Jak2,"IC50 [2, 17]: 133 ± 62 nM; IC50 [3, 18]: 291 ± 40 nM; IC50 [4, 19]: 197 ± 73 nM; IC50 (HEL cells [5]; HEL cells, 72 hrs, mean ± SD): 506 ± 18 nM; concentration at which nuclei size increases [15]: did not have this effect"
Cc1cnc(Nc2ccc(N3CCN(C)CC3)cc2)nc1Nc1cccc(S(=O)(=O)NC(C)(C)C)c1 [TG101209],,,strongly reduced phosphorylation of STAT5,reduced proliferation of HEL cells very effectively,efficiently decreased,efficiently decreased,increased phosphorylation of Jak2,"IC50 [2, 17]: 92 ± 18 nM; IC50 [3, 18]: 156 ± 10 nM; IC50 [4, 19]: 125 ± 45 nM; IC50 (HEL cells [5]; HEL cells, 72 hrs, mean ± SD): 243 ± 41 nM; concentration at which nuclei size increases [15]: did not show this effect; also recorded: did not have this effect; effect on cell cycle profile (HEL cells [10]): reduction in the G2/M peak intensity; effect on histone H3 phosphorylation [11]: only very little effect; effect on HEL cell size (HEL cells [14]): not observed"
Cc1cnc(Nc2ccc(OCCN3CCCC3)cc2)nc1Nc1cccc(S(=O)(=O)NC(C)(C)C)c1 [TG101348],,,showed the same effects but were less efficient,showed the same effects but were less efficient,efficiently decreased,efficiently decreased,increased phosphorylation of Jak2,"IC50 [2, 16]: ~600 nM; IC50 [2, 17]: 636 ± 203 nM; IC50 ([3]; 24 h): 850 ± 101 nM; IC50 [4]: 385 ± 61 nM; IC50 (HEL cells [5]; Homo sapiens, HEL, 72 h): 725 ± 85 nM; concentration at which nuclei size increases [15]: did not have this effect"

# Further lines, with some results ahead:
"IC50 values, WB (P-STAT5) ([2]; HEL cells)",Compound,effect on erythroid and myeloid colony growth [1],effect on phosphorylation of STAT5 (Western blot) ([2]; HEL cells),effect on proliferation of HEL cells (HEL cells [5]; 72 hrs),effect on phosphorylation of STAT5 (Western blot) [7],effect on phosphorylation of STAT5 (Western blot) [8],effect on phosphorylation of Jak2 [9],further results
No inhibition,Cc1cc(Nc2cc(N3CCN(C)CC3)nc(Sc3ccc(NC(=O)C4CC4)cc3)n2)[nH]n1 [VX680],reduced the numbers of myeloid colonies very efficiently but had less effect on erythroid colonies,did not inhibit the phosphorylation of STAT5,very efficiently inhibited HEL cell growth,did not inhibit STAT5 phosphorylation,did not inhibit STAT5 phosphorylation,not observed,"IC50 values, STAT-reporter gene assay [3, 18]: No inhibition; IC50 values, STAT3-YFP translocation assay [4, 19]: No inhibition; IC50 (HEL cells [5]; Homo sapiens, HEL, 72 h): 158 ± 26 nM; increase in nuclei size in cell lines not expressing Jak2V617F [6]: this effect was also clearly visible; effect on cell cycle profile (HEL cells [10]): emergence of an 8n peak; effect on histone H3 phosphorylation [11]: Reduction in histone H3 phosphorylation; effect on histone H3 phosphorylation [12]: decline of histone H3 phosphorylation; effect on histone H3 phosphorylation [13]: decline of histone H3 phosphorylation; effect on HEL cell size (HEL cells [14]): increased in size"
No inhibition,C[C@H](NC(=O)/C(C#N)=C/c1cccc(Br)n1)c1ccccc1 [WP1066],,did not inhibit the phosphorylation of STAT5,moderate effect,did not inhibit STAT5 phosphorylation,did not inhibit STAT5 phosphorylation,not observed,"IC50 values, STAT-reporter gene assay [3, 18]: No inhibition"
No inhibition,CCN(CC)CCNC(=O)c1c(C)[nH]c(/C=C2\C(=O)Nc3ccc(F)cc32)c1C [Sunitinib],,did not inhibit the phosphorylation of STAT5,moderate effect,did not inhibit STAT5 phosphorylation,did not inhibit STAT5 phosphorylation,not observed,
No inhibition,Nc1nc(Nc2ccc(S(N)(=O)=O)cc2)nn1C(=O)c1c(F)cccc1F [JNJ7706621],,did not inhibit the phosphorylation of STAT5,neither affected cell growth,,,not observed,
